{"source": "ChEMBL document CHEMBL3774310", "about": "“Discovery of antitumor anthra[2,3-b]furan-3-carboxamides: Optimization of synthesis and evaluation of antitumor properties” (Eur J Med Chem, 2016)", "key": {"[1]": {"tested_on": "Calf thymus DNA", "assay": "Binding affinity to calf thymus DNA assessed as dissociation constant by Scatchard plot analysis", "assay_type": "nucleic-acid assay, Bos taurus"}, "[2]": {"assay": "Antiproliferative activity against human K562/4 cells after 72 hrs by MTT assay", "details": "K562/4, 72 h"}, "[3]": {"tested_on": "Calf thymus DNA", "assay": "Binding affinity to calf thymus DNA assessed as decrease in extinction of absorption maxima at 5 uM by spectrophotometric analysis", "assay_type": "nucleic-acid assay", "parameters": "scale not given: the % may be the effect or the level left", "details": "Bos taurus"}, "[4]": {"tested_on": "P388", "assay": "Antitumor activity against mouse P388 cells transplanted in DBA2/BDF1 mouse assessed as mean life span at 30 mg/kg, ip dosed daily for 5 days (reference value: 9.7 +/- 1.1 day)", "assay_type": "functional"}, "[5]": {"tested_on": "HeLa", "assay": "Antiproliferative activity against human HeLa cells after 72 hrs by MTT assay", "assay_type": "functional, cell-based"}, "[6]": {"tested_on": "K562", "assay": "cells", "details": "Homo sapiens, K562, 72 h", "description": "Antiproliferative activity against human K562 cells after 72 hrs by MTT assay"}, "[7]": {"assay": "Cell cycle arrest in p53 knockout human HCT116 cells assessed as decrease in G1 phase at 1 uM after 24 hrs", "assay_type": "functional, cell-based", "details": "HCT-116"}, "[8]": {"tested_on": "HCT-116", "assay": "Induction of apoptosis in human HCT116 cells assessed as early apoptotic cells at 1 uM after 24 hrs by Annexin V-FITC/propidium iodide staining based assay (reference value: 2 +/- 1%)", "assay_type": "functional"}, "[9]": {"tested_on": "HCT-116", "assay": "Induction of apoptosis in human HCT116 cells assessed as viable cells at 1 uM after 48 hrs by Annexin V-FITC/propidium iodide staining based assay (reference value: 95 +/- 2%)", "assay_type": "functional"}, "[10]": {"assay": "Cytotoxicity against hFB-hTERT6 assessed as reduction in cell viability after 72 hrs by MTT assay", "details": "Homo sapiens, hFB-hTERT6, 72 h"}, "[11]": {"assay": "Cell cycle arrest in human HCT116 cells assessed as accumulation in sub G1 phase at 1 uM after 24 to 48 hrs relative to control", "assay_type": "functional, cell-based", "details": "HCT-116"}, "[12]": {"assay": "cells", "details": "Homo sapiens, HCT-116, 72 h", "description": "Antiproliferative activity against human HCT116 cells after 72 hrs by MTT assay"}, "[13]": {"tested_on": "Calf thymus DNA", "details": "Bos taurus", "description": "Binding affinity to calf thymus DNA assessed as binding constant by Scatchard plot analysis"}, "[14]": {"tested_on": "HCT-116", "assay": "Induction of apoptosis in human HCT116 cells assessed as viable cells at 1 uM after 24 hrs by Annexin V-FITC/propidium iodide staining based assay (reference value: 95 +/- 2%)", "assay_type": "functional"}, "[15]": {"tested_on": "P388", "assay": "Antitumor activity against mouse P388 cells transplanted in DBA2/BDF1 mouse assessed as mean life span at 50 mg/kg, ip dosed daily for 5 days relative to control", "assay_type": "functional"}, "[16]": {"assay": "Cell cycle arrest in p53 knockout human HCT116 cells assessed as accumulation in sub G1 phase at 1 uM after 24 to 48 hrs relative to control", "assay_type": "functional, cell-based", "details": "HCT-116"}, "[17]": {"target": "DNA topoisomerase 2-alpha (Homo sapiens) (UniProt P11388)", "sequence (P11388 whole entry)": "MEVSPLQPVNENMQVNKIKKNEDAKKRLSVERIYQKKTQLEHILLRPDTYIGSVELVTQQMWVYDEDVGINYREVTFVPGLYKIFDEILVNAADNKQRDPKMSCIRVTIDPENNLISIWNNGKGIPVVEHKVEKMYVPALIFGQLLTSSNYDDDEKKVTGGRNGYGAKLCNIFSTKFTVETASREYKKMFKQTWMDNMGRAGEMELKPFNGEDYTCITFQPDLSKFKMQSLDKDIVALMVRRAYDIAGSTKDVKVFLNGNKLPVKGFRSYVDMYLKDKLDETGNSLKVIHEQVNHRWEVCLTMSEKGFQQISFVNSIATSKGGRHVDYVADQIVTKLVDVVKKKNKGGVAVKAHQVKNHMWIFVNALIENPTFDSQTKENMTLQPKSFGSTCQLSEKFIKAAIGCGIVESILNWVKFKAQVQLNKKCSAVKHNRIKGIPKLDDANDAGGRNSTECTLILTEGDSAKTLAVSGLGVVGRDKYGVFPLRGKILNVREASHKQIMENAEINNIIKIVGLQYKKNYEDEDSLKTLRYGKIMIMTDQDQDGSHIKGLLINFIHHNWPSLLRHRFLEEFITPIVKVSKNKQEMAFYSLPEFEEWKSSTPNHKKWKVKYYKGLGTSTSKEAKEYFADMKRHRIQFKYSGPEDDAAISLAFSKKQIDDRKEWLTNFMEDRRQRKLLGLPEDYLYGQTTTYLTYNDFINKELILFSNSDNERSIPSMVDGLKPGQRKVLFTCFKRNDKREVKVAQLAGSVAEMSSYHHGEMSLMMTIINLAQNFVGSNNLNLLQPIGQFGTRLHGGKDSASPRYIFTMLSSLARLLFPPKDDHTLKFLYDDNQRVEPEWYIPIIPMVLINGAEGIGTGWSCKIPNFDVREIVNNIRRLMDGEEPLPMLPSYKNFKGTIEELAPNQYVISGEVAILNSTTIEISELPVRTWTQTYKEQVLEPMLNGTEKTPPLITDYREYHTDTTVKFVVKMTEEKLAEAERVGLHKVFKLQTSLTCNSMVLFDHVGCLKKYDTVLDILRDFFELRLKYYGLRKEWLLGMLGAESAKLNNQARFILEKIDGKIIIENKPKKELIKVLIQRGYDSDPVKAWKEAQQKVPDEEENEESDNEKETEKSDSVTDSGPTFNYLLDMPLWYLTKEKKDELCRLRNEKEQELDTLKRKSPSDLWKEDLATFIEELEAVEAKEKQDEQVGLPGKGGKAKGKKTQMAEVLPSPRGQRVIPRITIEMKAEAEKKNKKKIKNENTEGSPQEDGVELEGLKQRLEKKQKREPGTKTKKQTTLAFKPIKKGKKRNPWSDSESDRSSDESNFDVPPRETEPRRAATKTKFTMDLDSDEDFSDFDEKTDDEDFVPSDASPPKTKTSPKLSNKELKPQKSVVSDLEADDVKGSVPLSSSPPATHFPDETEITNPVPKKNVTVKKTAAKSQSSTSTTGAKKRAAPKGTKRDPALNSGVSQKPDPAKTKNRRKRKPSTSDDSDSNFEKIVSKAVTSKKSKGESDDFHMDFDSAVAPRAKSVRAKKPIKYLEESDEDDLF", "assay": "Inhibition of human topoisomerase 2-alpha assessed as attenuation of enzyme-mediated relaxation of supercoiled pBR322 DNA at 40 uM after 30 mins by agarose gel electrophoresis"}, "[18]": {"tested_on": "Mus musculus", "assay": "Toxicity in DBA2/BDF1 mouse transplanted with mouse P388 cells at 5 to 40 mg/kg, ip dosed daily for 5 days", "assay_type": "organism-based", "details": "in vivo, 120 h"}, "[19]": {"target": "Fibroblast growth factor receptor 1 (Homo sapiens, UniProt P11362, V561M)", "assay": "Inhibition of human FGF-R1 V561M mutant expressed in sf9 cells by flashplate based radiometric 33pan-quinase assay"}, "[20]": {"target": "MAP kinase-interacting serine/threonine-protein kinase 1 (Homo sapiens, UniProt Q9BUB5)", "sequence (Q9BUB5 whole entry)": "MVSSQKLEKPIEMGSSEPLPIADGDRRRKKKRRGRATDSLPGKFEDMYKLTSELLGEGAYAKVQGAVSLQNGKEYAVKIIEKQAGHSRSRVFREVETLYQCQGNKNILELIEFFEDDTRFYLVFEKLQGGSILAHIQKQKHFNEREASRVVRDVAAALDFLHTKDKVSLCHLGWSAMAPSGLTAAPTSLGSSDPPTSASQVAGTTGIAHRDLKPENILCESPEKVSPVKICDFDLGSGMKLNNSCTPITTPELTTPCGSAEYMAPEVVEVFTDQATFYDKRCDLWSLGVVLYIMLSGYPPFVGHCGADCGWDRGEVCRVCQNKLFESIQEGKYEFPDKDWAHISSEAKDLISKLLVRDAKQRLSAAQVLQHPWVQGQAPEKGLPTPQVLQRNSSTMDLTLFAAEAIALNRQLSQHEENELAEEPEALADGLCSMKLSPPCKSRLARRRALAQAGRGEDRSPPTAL", "assay": "Inhibition of human MKNK1 by flashplate based radiometric 33pan-quinase assay"}, "[21]": {"target": "Aurora kinase C (Homo sapiens, UniProt Q9UQB9)", "sequence (Q9UQB9 whole entry)": "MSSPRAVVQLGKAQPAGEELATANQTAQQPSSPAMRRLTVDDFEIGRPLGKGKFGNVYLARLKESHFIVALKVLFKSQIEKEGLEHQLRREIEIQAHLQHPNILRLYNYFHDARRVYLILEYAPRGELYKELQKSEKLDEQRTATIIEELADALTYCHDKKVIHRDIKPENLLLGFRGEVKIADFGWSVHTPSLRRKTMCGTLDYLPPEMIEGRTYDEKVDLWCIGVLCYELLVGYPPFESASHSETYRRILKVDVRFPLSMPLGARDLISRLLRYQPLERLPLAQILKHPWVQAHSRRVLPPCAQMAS", "assay": "Inhibition of full length human N-terminal GST-HIS6-tagged Aurora C expressed in sf9 cells by flashplate based radiometric 33pan-quinase assay"}, "[22]": {"tested_on": "P388", "assay": "Antitumor activity against mouse P388 cells transplanted in DBA2/BDF1 mouse assessed as mean life span at 20 mg/kg, ip dosed daily for 5 days (reference value: 9.6 +/- 0.5 day)", "assay_type": "functional"}, "[23]": {"tested_on": "P388", "assay": "Antitumor activity against mouse P388 cells transplanted in DBA2/BDF1 mouse assessed as mean life span at 40 mg/kg, ip dosed daily for 5 days relative to control", "assay_type": "functional"}, "[24]": {"tested_on": "P388", "assay": "Antitumor activity against mouse P388 cells transplanted in DBA2/BDF1 mouse assessed as mean life span at 5 mg/kg, ip dosed daily for 5 days (reference value: 9.6 +/- 0.5 day)", "assay_type": "functional"}, "[25]": {"target": "Serine/threonine-protein kinase pim-3 (Homo sapiens, UniProt Q86V86)", "assay": "Inhibition of full length human N-terminal GST-HIS6-tagged PIM3 expressed in sf9 cells by flashplate based radiometric 33pan-quinase assay"}, "[26]": {"target": "Dual serine/threonine and tyrosine protein kinase (Homo sapiens, UniProt Q6XUX3)", "sequence (Q6XUX3 whole entry)": "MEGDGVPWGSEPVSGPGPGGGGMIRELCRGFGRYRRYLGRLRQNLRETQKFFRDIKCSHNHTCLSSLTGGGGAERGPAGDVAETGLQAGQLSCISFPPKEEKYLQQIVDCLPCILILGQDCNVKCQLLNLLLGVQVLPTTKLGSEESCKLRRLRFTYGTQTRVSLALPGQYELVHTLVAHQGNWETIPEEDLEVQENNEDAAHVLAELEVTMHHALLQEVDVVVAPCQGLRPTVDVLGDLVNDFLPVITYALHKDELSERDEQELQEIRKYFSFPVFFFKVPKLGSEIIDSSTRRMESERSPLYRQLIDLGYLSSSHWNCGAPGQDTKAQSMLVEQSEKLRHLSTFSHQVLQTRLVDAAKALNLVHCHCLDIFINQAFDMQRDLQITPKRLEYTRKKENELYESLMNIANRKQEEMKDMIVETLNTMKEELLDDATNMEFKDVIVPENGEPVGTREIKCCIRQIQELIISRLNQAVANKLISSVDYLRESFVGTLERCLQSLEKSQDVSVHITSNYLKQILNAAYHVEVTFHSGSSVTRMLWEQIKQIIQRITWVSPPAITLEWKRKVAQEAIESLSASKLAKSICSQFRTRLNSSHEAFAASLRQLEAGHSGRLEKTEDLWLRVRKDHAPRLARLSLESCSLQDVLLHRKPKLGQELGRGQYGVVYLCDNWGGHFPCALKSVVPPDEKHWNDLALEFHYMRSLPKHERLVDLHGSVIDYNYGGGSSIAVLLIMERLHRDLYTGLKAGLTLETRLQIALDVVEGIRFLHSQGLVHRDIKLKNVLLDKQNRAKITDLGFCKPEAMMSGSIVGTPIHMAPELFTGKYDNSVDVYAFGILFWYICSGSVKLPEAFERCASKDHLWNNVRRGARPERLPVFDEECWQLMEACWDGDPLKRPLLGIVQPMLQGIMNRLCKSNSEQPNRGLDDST", "assay": "Inhibition of human RIPK5 by flashplate based radiometric 33pan-quinase assay"}, "[27]": {"tested_on": "Mus musculus", "assay": "Toxicity in DBA2/BDF1 mouse transplanted with mouse P388 cells assessed as reduction in spleen mass at 50 mg/kg, ip dosed daily for 5 days relative to control", "assay_type": "organism-based", "parameters": "scale not given: the % may be the effect or the level left", "details": "in vivo, 120 h"}, "[28]": {"tested_on": "P388", "assay": "Antitumor activity against mouse P388 cells transplanted in DBA2/BDF1 mouse assessed as mean life span at 30 mg/kg, ip dosed daily for 5 days (reference value: 9.6 to 9.7 day)", "assay_type": "functional"}, "[29]": {"tested_on": "P388", "assay": "Antitumor activity against mouse P388 cells transplanted in DBA2/BDF1 mouse assessed as mean life span at 5 mg/kg, ip dosed daily for 5 days relative to control", "assay_type": "functional"}, "[30]": {"target": "Aurora kinase B (Homo sapiens, UniProt Q96GD4)", "sequence (Q96GD4 whole entry)": "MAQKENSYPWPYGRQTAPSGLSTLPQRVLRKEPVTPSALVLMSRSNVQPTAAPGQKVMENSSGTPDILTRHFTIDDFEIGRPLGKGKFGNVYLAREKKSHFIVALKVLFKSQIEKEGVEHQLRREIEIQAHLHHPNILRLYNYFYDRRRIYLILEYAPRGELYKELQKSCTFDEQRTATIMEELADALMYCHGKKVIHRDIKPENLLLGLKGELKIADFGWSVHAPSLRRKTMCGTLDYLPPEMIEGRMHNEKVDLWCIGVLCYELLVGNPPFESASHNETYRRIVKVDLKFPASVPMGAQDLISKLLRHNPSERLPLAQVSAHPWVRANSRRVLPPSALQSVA", "assay": "Inhibition of full length human N-terminal GST-HIS6-tagged Aurora B expressed in sf9 cells by flashplate based radiometric 33pan-quinase assay"}, "[31]": {"target": "Mitogen-activated protein kinase kinase kinase 7 (Homo sapiens, UniProt O43318)", "sequence (O43318 whole entry)": "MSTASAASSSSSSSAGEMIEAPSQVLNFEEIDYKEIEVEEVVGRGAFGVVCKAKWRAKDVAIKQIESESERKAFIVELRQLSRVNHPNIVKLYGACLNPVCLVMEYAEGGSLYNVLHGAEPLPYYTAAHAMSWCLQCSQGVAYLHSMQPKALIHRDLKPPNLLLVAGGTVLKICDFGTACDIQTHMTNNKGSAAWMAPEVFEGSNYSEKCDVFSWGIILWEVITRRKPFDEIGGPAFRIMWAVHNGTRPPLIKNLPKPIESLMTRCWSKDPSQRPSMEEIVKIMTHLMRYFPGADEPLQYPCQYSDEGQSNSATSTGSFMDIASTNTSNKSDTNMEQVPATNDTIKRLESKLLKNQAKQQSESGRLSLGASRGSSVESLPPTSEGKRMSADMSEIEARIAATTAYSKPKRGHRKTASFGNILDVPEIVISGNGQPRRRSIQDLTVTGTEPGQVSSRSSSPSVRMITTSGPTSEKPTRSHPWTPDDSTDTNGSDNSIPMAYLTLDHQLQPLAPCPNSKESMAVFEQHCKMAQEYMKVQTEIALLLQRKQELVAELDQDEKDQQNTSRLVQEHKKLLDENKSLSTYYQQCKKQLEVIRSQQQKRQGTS", "assay": "Inhibition of human MAP3K7 by flashplate based radiometric 33pan-quinase assay"}, "[32]": {"tested_on": "P388", "assay": "Antitumor activity against mouse P388 cells transplanted in DBA2/BDF1 mouse assessed as mean life span at 10 mg/kg, ip dosed daily for 5 days relative to control", "assay_type": "functional"}, "[33]": {"target": "Serine/threonine-protein kinase pim-1 (Homo sapiens, UniProt P11309)", "sequence (P11309 whole entry)": "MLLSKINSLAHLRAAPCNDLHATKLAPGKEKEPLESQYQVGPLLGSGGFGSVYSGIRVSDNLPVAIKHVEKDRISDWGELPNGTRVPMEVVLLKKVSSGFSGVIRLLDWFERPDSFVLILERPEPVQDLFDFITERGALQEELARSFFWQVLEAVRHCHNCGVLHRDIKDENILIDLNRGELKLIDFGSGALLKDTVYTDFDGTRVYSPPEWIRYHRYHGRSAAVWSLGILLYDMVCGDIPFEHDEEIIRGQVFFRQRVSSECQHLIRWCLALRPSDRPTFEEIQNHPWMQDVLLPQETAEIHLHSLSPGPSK", "assay": "Inhibition of full length human N-terminal GST-HIS6-tagged PIM1 expressed in sf9 cells by flashplate based radiometric 33pan-quinase assay"}, "[34]": {"tested_on": "P388", "assay": "Antitumor activity against mouse P388 cells transplanted in DBA2/BDF1 mouse assessed as mean life span at 40 mg/kg, ip dosed daily for 5 days (reference value: 9.6 +/- 0.5 day)", "assay_type": "functional"}, "[35]": {"tested_on": "P388", "assay": "Antitumor activity against mouse P388 cells transplanted in DBA2/BDF1 mouse assessed as mean life span at 10 mg/kg, ip dosed daily for 5 days (reference value: 9.6 +/- 0.5 day)", "assay_type": "functional"}, "[36]": {"tested_on": "P388", "assay": "Antitumor activity against mouse P388 cells transplanted in DBA2/BDF1 mouse assessed as mean life span at 20 mg/kg, ip dosed daily for 5 days relative to control", "assay_type": "functional"}, "[37]": {"tested_on": "Mus musculus", "assay": "Toxicity in DBA2/BDF1 mouse transplanted with mouse P388 cells assessed as spleen mass at 50 mg/kg, ip dosed daily for 5 days (reference value: 142 mg)", "assay_type": "organism-based", "details": "in vivo, 120 h"}, "[38]": {"tested_on": "Mus musculus", "assay": "Toxicity in mouse P388 cells transplanted DBA2/BDF1 mouse assessed as mouse mortality at 50 mg/kg, ip dosed daily for 5 days", "assay_type": "organism-based", "details": "in vivo, 120 h"}}, "note": "Active and inactive are the calls of the source. The rule behind the calls is not given here.", "data": [{"smiles": "CS(=O)(=O)O.Cc1oc2c(O)c3c(c(O)c2c1C(=O)N1CC[C@@H](N)C1)C(=O)c1ccccc1C3=O", "values": [{"measurement": "Kd", "setting": "[1]", "result": 2000, "unit": "nM"}, {"measurement": "IC50", "setting": "[2]", "result": 1300, "unit": "nM"}, {"measurement": "Activity", "setting": "[3]", "result": 36, "unit": "%"}, {"measurement": "Activity", "setting": "[4]", "result": 11.8, "unit": "days"}, {"measurement": "IC50", "setting": "[5]", "result": 2100, "unit": "nM"}, {"measurement": "IC50", "setting": "[6]", "result": 1100, "unit": "nM"}, {"measurement": "Activity", "setting": "[7]", "result": "Active"}, {"measurement": "Activity", "setting": "[8]", "result": "Active"}, {"measurement": "Activity", "setting": "[9]", "result": "Active"}, {"measurement": "IC50", "setting": "[10]", "result": "> 50000", "unit": "nM"}, {"measurement": "Activity", "setting": "[11]", "result": "> 70", "unit": "%"}, {"measurement": "IC50", "setting": "[12]", "result": 1200, "unit": "nM"}, {"measurement": "Ka", "setting": "[13]", "result": 5, "unit": "×10⁵ /M"}, {"measurement": "Activity", "setting": "[14]", "result": "Active"}, {"measurement": "Activity", "setting": "[15]", "result": 178, "unit": "%"}, {"measurement": "Activity", "setting": "[16]", "result": "> 70", "unit": "%"}, {"measurement": "Activity", "setting": "[17]", "result": "Active"}]}, {"smiles": "CS(=O)(=O)O.Cc1oc2c(O)c3c(c(O)c2c1C(=O)N1CC[C@H](N)C1)C(=O)c1ccccc1C3=O", "values": [{"measurement": "IC50", "setting": "[2]", "result": 1400, "unit": "nM"}, {"measurement": "Activity", "setting": "[3]", "result": 36, "unit": "%"}, {"measurement": "Activity", "setting": "[18]", "result": "Non-toxic"}, {"measurement": "IC50", "setting": "[19]", "result": "< 5000", "unit": "nM"}, {"measurement": "IC50", "setting": "[20]", "result": "< 5000", "unit": "nM"}, {"measurement": "IC50", "setting": "[21]", "result": "< 5000", "unit": "nM"}, {"measurement": "Activity", "setting": "[22]", "result": 21.3, "unit": "days"}, {"measurement": "Activity", "setting": "[7]", "result": "Active"}, {"measurement": "Activity", "setting": "[23]", "result": 262, "unit": "%"}, {"measurement": "Activity", "setting": "[24]", "result": 13.4, "unit": "days"}, {"measurement": "IC50", "setting": "[25]", "result": "< 5000", "unit": "nM"}, {"measurement": "Activity", "setting": "[8]", "result": 20, "unit": "%"}, {"measurement": "viability at 1 µM", "setting": "[9]; HCT-116, 48 h, read-out: Activity", "result": 12, "unit": "%"}, {"measurement": "IC50", "setting": "[26]", "result": "< 5000", "unit": "nM"}, {"measurement": "Activity", "setting": "[27]", "result": 40, "unit": "%"}, {"measurement": "Activity", "setting": "[28]", "result": 20.8, "unit": "days"}, {"measurement": "Activity", "setting": "[29]", "result": 140, "unit": "%"}, {"measurement": "IC50", "setting": "[30]", "result": "< 5000", "unit": "nM"}, {"measurement": "IC50", "setting": "[10]", "result": "> 50000", "unit": "nM"}, {"measurement": "IC50", "setting": "[31]", "result": "< 5000", "unit": "nM"}, {"measurement": "Activity", "setting": "[11]", "result": "> 70", "unit": "%"}, {"measurement": "Activity", "setting": "[32]", "result": 170, "unit": "%"}, {"measurement": "IC50", "setting": "[33]", "result": "< 5000", "unit": "nM"}, {"measurement": "viability at 1 µM", "setting": "[14]; HCT-116, 24 h, read-out: Activity", "result": 58, "unit": "%"}, {"measurement": "Activity", "setting": "[34]", "result": 25.2, "unit": "days"}, {"measurement": "Activity", "setting": "[35]", "result": 16.3, "unit": "days"}, {"measurement": "Activity", "setting": "[36]", "result": 222, "unit": "%"}, {"measurement": "Activity", "setting": "[37]", "result": 87, "unit": "mg"}, {"measurement": "Activity", "setting": "[16]", "result": "> 70", "unit": "%"}, {"measurement": "Activity", "setting": "[38]", "result": "Toxic"}, {"measurement": "Activity", "setting": "[17]", "result": "Active"}]}]}
